Measurements published in US20230201221A1, “USE OF TERPENOIDS IN THE TREATMENT OR PREVENTION OF FIBROTIC DISEASES” (ARJIL BIOTECH HOLDING COMPANY LIMITED, priority 2020, published 2023).

Columns and labels:
Assay type in all cases: in vivo
SD rats = experiment: CCl4-induced chronic liver fibrosis in rat
Experimental: Blood samples are collected at week 0, 2, 4, 6, and 8. The animals are sacrificed at the end of the 8-week for histopathological examinations. FIGS. 7A, 7B, 7C depict delta weight, liver weight, and liver/body-weight ratio, respectively.
The level of clinical biochemistry such as aspartate aminotransferase (AST), alanine aminotransferase (ALT), is evaluated to determine the enzymatic activities of the livers of the control groups and the experimental groups (shown in FIGS. 8A-8C).

[1] = test system: TNF-α, IL-1β, IL-6 and TGF-β; experiment: Cisplatin-induced renal injury in mice: serum pro-inflammatory cytokines by ELISA; details: extract at 1000 mg/kg; after cisplatin challenge
Experimental: TNF-α, IL-6, and IL-1β cytokines in serum The serum concentration of the pro-inflammatory cytokines (i.e. tumor necrosis factor-α (TNF-α), interleukin-6 (IL-6), and IL-1β) in serum are assessed with relevant enzyme-linked immunosorbent assay (ELISA) kits (Biosource International Inc., Sunnyvale, Calif., USA), based on the manufacturer's instructions.
(§1) Seven-to-eight-week-old male C57BL/6 mice are obtained from the BioLASCO Taiwan Co., Ltd. (Taipei, Taiwan). The animals are housed in Plexiglas cages at a constant temperature of 22±1° C. and a relative humidity of 55±5% on a 12 h dark-light cycle for at least 2 weeks before the experiment. Animals are provided food and water ad libitum. All experimental procedures are performed according to the guidelines of the Institutional Animal Ethics Committee, and the protocol is approved by the Committee for the Purpose of Control and Supervision of Experiments on Animals.
Renal fibrosis is induced via multiple injections of low-dose cisplatin. Intraperitoneal injections of cisplatin (5 mg/kg/injection; P4394, Sigma-Aldrich, St Louis, Mo.) are performed at 0, 1, and 3 weeks, for a total of 3 injections. Mice are sacrificed at 6 weeks after the first dose of cisplatin (n=6). […]

C57BL/6 mice = experiment: Cisplatin-induced renal injury in mice: serum CRE and BUN; details: extracts at 1000 mg/kg; compared to cisplatin-stimulated group, p<0.001
Experimental: Determination of biochemical parameters Serum creatinine and serum urea are assessed using colorimetric kits according to manufacturer's instructions. Kits of the former markers are purchased from (HUMAN Diagnostics Worldwide, Magdeburg, Germany) with a chemical analyzer (Roche Diagnostics, Cobas Mira Plus, Rotkreuz, Switzerland).
as §1
Renal fibrosis is induced via multiple injections of low-dose cisplatin. Intraperitoneal injections of cisplatin (5 mg/kg/injection; P4394, Sigma-Aldrich, St Louis, Mo.) are performed at 0, 1, and 3 weeks, for a total of 3 injections. Mice are sacrificed at 6 weeks after the first dose of cisplatin (n=6). To analyze the effects of samples, mice are given daily intraperitoneal injections for 7 days, starting from 4 weeks after first dose of cisplatin, and sacrificed at […] (n=6).

BALB/c mice = experiment: Con A (concanavalin A) induced acute hepatitis in BALB/c mice; details: mean ± SEM
Experimental: Male BALB/c mice (7-9 weeks old) were purchased from BioLASCO Taiwan Co., Ltd or National Laboratory Animal Center (NLAC, Taiwan). Animals are housed five per cage with food and water provided ad libitum throughout the experiments. Room temperature is maintained at 23±2° C. with an alternating 12 h light dark cycle. Animals are acclimatized for one week to minimize the effect of stress before the experiments. All experimental protocols involving animals and their care are approved by the Institutional Animal Care and Use Committee (IACUC) in ITRI (ITRI-IACUC-2018-041 and ITRI-IACUC-2018-050; accredited by AAALAC) and are carried out according to the regulations of the Council of Agriculture, Taiwan.
Con A is dissolved in pyrogen free saline at a concentration of 3 mg/mL and intravenously injected at a dose of 15 mg/kg or 20 mg/kg of body weight to induce hepatitis. […] Blood and liver tissues are collected 24 h after Con A treatment (FIG. 11). Serum are stored at […] until analysis.
To assess the level of hepatocellular injury after Con A treatment, serum GPT and GOT levels are measured by Fuji Dri-Chem slides (Fuji, Japan). The serum of the same group is pooled for cytokine assay. Cytokine levels are measured by ProcartaPlex™ immunoassays kit according to manufacturer's instructions. Data are presented as mean f SEM. T test is used to analyze the differences between drug and vehicle treated groups. The difference is regarded statistically significant when p value is less than 0.05.
Liver tissues are fixed in 10% phosphate buffered formaldehyde, embedded in paraffin, and stained with hematoxylin and eosin (H&E) in order to confirm tissue lesions. Tissue lesions are examined microscopically by a veterinary pathologist at BioLASCO Taiwan Co., Ltd. The criteria of severity grading system for all microscopic lesions are graded from 0 to 4 as follows: 0=none; 1=individual cell necrosis; 2=≤30% lobular necrosis; 3=≤60% lobular necrosis; 4=>60% lobular necrosis.

ICR mice = experiment: Bleomycin-induced pulmonary fibrosis in mice: lung hydroxyproline content; details: extract 1.0 g/kg; AH, BH, DH 50 mg/kg; p<0.001
Experimental: Mice were divided into fifth groups with 5 animals per group according to body weight: control group, BLM group, BLM+DEX group (7.5 mg/kg), BLM+ACH dosage group (50 mg/kg), and BLM+ACM dosage group (25 mg/kg), BLM+ACH dosage group (50 mg/kg), and BLM+ACM dosage group (25 mg/kg) BLM+AH dosage group (50 mg/kg), and BLM+AM dosage group (25 mg/kg) BLM+BH dosage group (50 mg/kg), and BLM+BM dosage group (25 mg/kg) BLM+CH dosage group (50 mg/kg), and BLM+CM dosage group (25 mg/kg) BLM+DH dosage group (50 mg/kg), and BLM+DM dosage group (25 mg/kg) BLM+EH dosage group (50 mg/kg), and BLM+EM dosage group (25 mg/kg) BLM. Pulmonary fibrosis (PF) was established in mice via a single intratracheal administration of BLM at 7.5 mg/kg mg/kg body weight. Different doses of samples were intragastrically administered daily for 21 days after BLM injury, and DEX was used as the positive control. Control and model groups received an equal volume of vehicle (0.9% NaCl) using the same schedule and route of administration.
The contents of hydroxyproline were analyzed in lung tissue following the instruction of hydroxyproline assay kit (Biosource International Inc., Sunnyvale, Calif., USA). The pulmonary tissues of mice were ground and homogenized with 1 ml of 6 mol/L […] solution, hydrolyzed at 95° C. for 5 hours, and the pH value was adjusted to 6.0-6.8. According to the instructions, the corresponding reagents were added to the reaction system and mixed thoroughly and then incubated for 15 minutes at 60° C. After cooling, the supernatants were collected after centrifuging at 3500 rpm for 10 minutes. The absorbance value of the supernatant from the samples was measured at 550 nm by a spectrophotometer and calculated for the contents of hydroxyproline on each group.

## C=C1C(=O)O[C@H]2/C=C(\C)CC3C=C(CC/C=C(\C)CC[C@H]12)C(=O)O3 (stereo partly drawn) [AR100-DS1, Ovatodiolide]
SD rats; 50 mg/kg, W6 and W8, compared with the vehicle group
  serum AST and ALT level: less AST and ALT increases
SD rats; 50 mg/kg, after 8 weeks of CCl4 induction
  liver appearance: smooth surface without atrophy and sclerosis
SD rats; 8 weeks of CCl4 induction
  overall effect on CCl4-induced liver injury: potential to partially repair CCl4-induced liver injury
[1]
  NO, TNF-α, IL-1β, and IL-6 production in serum: improved NO, TNF-α, IL-1β, and IL-6 production
C57BL/6 mice
  renal protection: normalization of serum CRE and BUN: significant renal protection effect
BALB/c mice; 50 mg/kg oral, 24 h after 15 mg/kg Con A, vehicle 368±107, p<0.05
  serum GPT level: 109±25 U/L
BALB/c mice; 50 mg/kg oral, 24 h after 15 mg/kg Con A, vehicle 410±56
  serum GOT level: 261±45 U/L
BALB/c mice; graded 0 to 4, 24 h after Con A, vehicle 1.4±0.2
  liver necrosis histopathological score: 0.2±0.2
ICR mice
  hydroxyproline (HP) content in lung tissue: reduced lung HP
